This is an account of results in patent publication US20210177828A1, “TAM FAMILY KINASE /AND CSF1R KINASE INHIBITOR AND USE THEREOF” (Nanjing Transthera Biosciences Co., Ltd., priority 2018, published 2021).

pIC50: −log10 of the molar value. Read-outs that look alike come from different tables or passages of the source.

Data set [1] can be described thus: PK assay in rat (IV and PO). Format: in vivo. Conditions: plasma, SD rats; for bioavailability: read-out: F % (absolute bioavailability); for clearance: read-out: Cl_obs iv (clearance rate) (converted); for Vd: read-out: Vz_obs iv (apparent volume of distribution); for Tmax: read-out: Tmax po (time of maximum observed plasma concentration). The procedure: The experimental compounds were each dissolved in a mixture of 5% DMSO+20% (30% solutol)+75% saline to prepare compound solutions. The compound solutions were intragastrically administered to SD rats at a dosage of 5.0 mg/kg. The blood was sampled at time points of 15 min, 30 min, 1 hr, 2 hrs, 4 hrs, 6 hrs, 8 hrs and 24 hrs after administration.
The experimental compounds were each dissolved in a mixture of 5% DMSO+20% (30% solutol)+75% saline to prepare compound solutions. The compound solutions were intravenously administered to SD rats at a dosage of 1 mg/kg. The blood was sampled at time points of 5 min, 15 min, 30 min, 1 hr, 2 hrs, 4 hrs, 6 hrs, 8 hrs and 24 hrs after administration.
The animals were fixed, and the tails were heated under a water bath 10 min before each sampling time. About 100 μL of blood was collected via the tail vein, and the collected blood was placed in an anticoagulant tube containing EDTA-K2. The blood samples were centrifuged at 8,000 rpm for 6 min at 4° C. to obtain plasma samples, and the plasma samples were prepared within 30 min after the blood collection. The plasma samples were stored in a refrigerator at −80° C. before test.
The sample to be tested was taken out from the −80° C. refrigerator, naturally thawed at room temperature, and vortexed for 5 min. 20 μL of plasma sample was pipetted to a 1.5 mL centrifuge tube, and 200 μL of internal standard working solution (a solution of tolbutamide in methanol, 100 ng/mL) was added. The resulting mixture was thoroughly mixed, vortexed for 5 min, and centrifuged at 12,000 rpm for 5 min. 50 μL of supernatant was precisely pipetted to a 96-well plate with 150 μL of water per well, and the resulting mixture was vortexed for 5 min and then used for LC-MS/MS analysis.

In a further data set the target is T1, H1299 cell pAxl (Homo sapiens, UniProt P30530).
T1 construct: endogenous in cells; host or cells: H1299
T1 sequence (P30530 26-894): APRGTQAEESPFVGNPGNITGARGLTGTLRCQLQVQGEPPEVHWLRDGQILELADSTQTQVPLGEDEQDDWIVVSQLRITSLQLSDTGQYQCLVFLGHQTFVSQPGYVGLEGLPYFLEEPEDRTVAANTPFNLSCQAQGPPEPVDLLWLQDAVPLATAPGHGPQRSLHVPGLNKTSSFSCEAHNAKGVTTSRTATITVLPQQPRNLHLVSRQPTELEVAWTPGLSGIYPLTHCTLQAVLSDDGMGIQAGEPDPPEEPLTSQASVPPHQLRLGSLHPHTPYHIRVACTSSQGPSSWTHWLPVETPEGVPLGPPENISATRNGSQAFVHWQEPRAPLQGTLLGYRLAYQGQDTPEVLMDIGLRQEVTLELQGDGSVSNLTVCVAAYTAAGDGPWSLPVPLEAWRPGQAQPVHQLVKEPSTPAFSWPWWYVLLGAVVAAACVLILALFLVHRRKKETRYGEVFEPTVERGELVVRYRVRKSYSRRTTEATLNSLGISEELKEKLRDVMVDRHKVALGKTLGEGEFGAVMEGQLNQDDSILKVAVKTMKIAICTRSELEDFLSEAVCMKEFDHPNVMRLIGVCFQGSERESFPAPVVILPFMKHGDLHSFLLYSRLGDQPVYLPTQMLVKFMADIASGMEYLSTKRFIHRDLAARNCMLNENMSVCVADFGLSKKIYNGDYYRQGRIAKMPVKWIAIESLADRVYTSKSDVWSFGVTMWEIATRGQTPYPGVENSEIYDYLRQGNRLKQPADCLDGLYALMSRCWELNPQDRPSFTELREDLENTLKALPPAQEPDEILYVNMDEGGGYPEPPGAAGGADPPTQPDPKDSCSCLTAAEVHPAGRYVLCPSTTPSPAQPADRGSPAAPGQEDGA
Description: Inhibitory activity on cell pAxl, H1299 cells, hGAS6 stimulation, Western Blot. Format: cell-based. Conditions: hGAS6 200 ng/mL. The procedure: H1299 is a non-small cell lung cancer cell.
H1299 cells were inoculated to a 6-well plate (containing 10% FBS 1640 medium, 5×10^5 cells per well) and adherently cultivated at 37° C., and 5% CO2 for 18 hrs. The cells were starved overnight, and then compound solutions with different concentrations were added. The compounds had final concentrations of 1.1, 3.3, 10 and 30 nM. […] There was a medium containing 1‰DMSO in the negative control well. The cells were incubated at 37° C., and 5% CO2 for 60 min, and then hGAS6 (R&D, final concentration: 200 ng/mL) was added to each well. The cells were further incubated for 60 min, and then the total protein of the cells was extracted for Western Blot experiment. IC50 values were calculated with GraphPad 5.0 software, and the inhibitory activities of the compounds on cell pAxl were detected.
Background: A western blot detects proteins with antibodies after separation by electrophoresis.

Where [2] appears, read: IV 1 mg/kg, read-out: AUClast iv (area under plasma concentration-time curve, 0-24 h).
Setting [3] is: IV 1 mg/kg, read-out: tz1/2 iv (terminal half-life) (converted).
Setting [4] is: PO 5 mg/kg, read-out: AUClast po (area under plasma concentration-time curve, 0-24 h).
Setting [5] is: PO 5 mg/kg, read-out: tz1/2 po (terminal half-life) (converted).

With `COc1cc2nccc(Oc3ccc(NC(=O)c4nn(CC5CCOCC5)cc(-c5ccc(C)cc5)c4=O)nc3)c2cc1OC` [Compound 2, N-(5-((6,7-dimethoxyquinolin-4-yl)oxy)pyridin-2-yl)-4-oxo-1-((tetrahydro-2H-pyran-4-yl)methyl)-5-(p-tolyl)-1,4-dihydropyridazin-3-carboxamide], the bioavailability in data set [1] (IV 1 mg/kg, PO 5 mg/kg) is 31.3%. Moreover, the values for the AUC(0-t) in data set [1] (setting [2]) and in data set [1] (setting [4]) were 4070 ng·h/mL and 6620 ng·h/mL, respectively. In data set [1] (IV 1 mg/kg), the clearance is 4 mL/min/kg. In data set [1] (IV 1 mg/kg), the Vd came out at 1.19 L/kg. In addition, the figures for the half-life in data set [1] (setting [3]) and in data set [1] (setting [5]) were 3.47 h and 3.14 h, respectively. For the same compound, the Tmax in data set [1] (PO 5 mg/kg) is 4 h.
In the case of `COc1cc2nccc(Oc3ccc(NC(=O)c4cc(-c5ccc(C)cc5)cn(CC5CCOCC5)c4=O)nc3)c2cc1OC` [Compound 13, N-(5-((6,7-dimethoxyquinolin-4-yl)oxy)pyridin 2yl)-2-oxo-1-((tetrahydro-2H-pyran-4-yl)methyl)-5-(p-tolyl)-1,2-dihydropyridin-3-carboxamide], in data set [1] (IV 1 mg/kg, PO 5 mg/kg), the bioavailability amounted to 46.4%. The results for the AUC(0-t) in data set [1] (setting [2]) and in data set [1] (setting [4]) were 4220 ng·h/mL and 9790 ng·h/mL, respectively. The clearance in data set [1] (IV 1 mg/kg) is 3.33 mL/min/kg. Also, the Vd in data set [1] (IV 1 mg/kg) is 1.65 L/kg. The half-life in data set [1] (setting [3]) is 9.08 h; in data set [1] (setting [5]), 8.12 h. For the same compound, in data set [1] (PO 5 mg/kg), the Tmax turned out to be 4 h.
Regarding `COc1cc2nccc(Oc3ccc(NC(=O)c4nn(C5CCOCC5)cc(-c5ccc(C)cc5)c4=O)nc3)c2cc1OC` [Compound 17, N-(5-((6,7-dimethoxyquinolin-4-yl)oxy)pyridin-2-yl)-4-oxo-1-(tetrahydro-2H-pyran-4-yl)-5-(p-tolyl)-1,4-dihydropyridazin-3-carboxamide], the bioavailability in data set [1] (IV 1 mg/kg, PO 5 mg/kg) is 70.7%. The AUC(0-t) in data set [1] (setting [2]) amounted to 4860 ng·h/mL; in data set [1] (setting [4]) it was 17200 ng·h/mL. Also, the clearance in data set [1] (IV 1 mg/kg) was 3.5 mL/min/kg. Moreover, the Vd in data set [1] (IV 1 mg/kg) amounted to 1.18 L/kg. In addition, the half-life was 3.98 h in data set [1] (setting [3]) and 3.5 h in data set [1] (setting [5]). Also, the Tmax in data set [1] (PO 5 mg/kg) stood at 6 h.
`COc1cc2nccc(Oc3cnc(NC(=O)c4nn(C5CCOCC5)cc(-c5ccc(C)cc5)c4=O)nc3)c2cc1OC` [Compound 18, N-(5-((6,7-dimethoxyquinolin-4-yl)oxy)pyrimidin-2-yl)-4-oxo-1-(tetrahydro-2H-pyran-4-yl)-5-(p-tolyl)-1,4-dihydropyridazin-3-carboxamide]: in data set [1] (IV 1 mg/kg, PO 5 mg/kg), the bioavailability amounted to 34.6%. In addition, the AUC(0-t) is 1500 ng·h/mL in data set [1] (setting [2]) and 2600 ng·h/mL in data set [1] (setting [4]). Further, the clearance in data set [1] (IV 1 mg/kg) is 11 mL/min/kg. Further, the Vd in data set [1] (IV 1 mg/kg) worked out at 0.92 L/kg. In addition, the half-life in data set [1] (setting [3]) is 0.96 h; in data set [1] (setting [5]), 1.17 h. For the same compound, in data set [1] (PO 5 mg/kg), the Tmax is 0.5 h.
As to `COc1cc2nccc(Oc3ccc(NC(=O)c4cn(C5CCOCC5)cc(-c5ccc(C)cc5)c4=O)nc3)c2cc1OC` [Compound 19, N-(5-((6,7-dimethoxyquinolin-4-yl)oxy)pyridin-2-yl)-4-oxo-1-(tetrahydro-2H-pyran-4-yl)-5-(p-tolyl)-1,4-dihydropyridin-3-carboxamide], the bioavailability in data set [1] (IV 1 mg/kg, PO 5 mg/kg) turned out to be 40.5%. Also, the AUC(0-t) in data set [1] (setting [2]) was 2440 ng·h/mL; in data set [1] (setting [4]), 5450 ng·h/mL. In addition, the clearance in data set [1] (IV 1 mg/kg) was 6.17 mL/min/kg. The Vd in data set [1] (IV 1 mg/kg) was found to be 1.3 L/kg. Also, the values for the half-life in data set [1] (setting [3]) and in data set [1] (setting [5]) were 2.44 h and 2.56 h, respectively. Besides, in data set [1] (PO 5 mg/kg), the Tmax was determined as 1 h.
In the case of `COc1cc2nccc(Oc3ccc(NC(=O)c4cn(C5CCOCC5)cc(-c5ccc(F)cc5)c4=O)nc3)c2cc1OC` [Compound 27, N-(5-((6,7-dimethoxyquinolin-4-yl)oxy)pyridin-2-yl)-5-(4-fluorophenyl)-4-oxo-1-(tetrahydro-2H-pyran-4-yl)-1,4-dihydropyridin-3-carboxamide], at H1299 cell pAxl, the pIC50 was > 8.96.
In the case of `COc1cc2nccc(Oc3ccc(NC(=O)c4nn(C5CCOCC5)cc(-c5ccc(C)cc5)c4=O)cc3F)c2cc1OC` [Compound 28], the pIC50 on H1299 cell pAxl was 8.96.
In the case of `Cc1ccc(-c2cn(C3CCOCC3)nc(C(=O)Nc3ccc(Oc4ccnc5cc6c(cc45)OCO6)cn3)c2=O)cc1` [Compound 29, N-(5-([1,3]dioxolo[4,5-g]quinolin-8-yloxy)pyridin-2-yl)-4-oxo-1-(tetrahydro-2H-pyran-4-yl)-5-(p-tolyl)-1,4-dihydropyridazin-3-carboxamide], the pIC50 at H1299 cell pAxl is 7.52.
With `Cc1ccc(-c2cn(C3CCOCC3)nc(C(=O)Nc3ccc(Oc4ccnc5cc6c(cc45)OCCO6)cn3)c2=O)cc1` [Compound 30, N-(5-((2,3-dihydro-[1,4]dioxino[2,3-g]quinolin-9-yl)oxy)pyridin-2-yl)-4-oxo-1-(tetrahydro-2H-pyran-4-yl)-5-(p-tolyl)-1,4-dihydropyridazin-3-carboxamide], the pIC50 against H1299 cell pAxl was < 8.00.
In the case of `COc1cc2nccc(Oc3cnc(NC(=O)c4cn(C5CCOCC5)cc(-c5ccc(F)cc5)c4=O)nc3)c2cc1OC` [Compound 31, N-(5-((6,7-dimethoxyquinolin-4-yl)oxy)pyrimidin-2-yl)-5-(4-fluorophenyl)-4-oxo-1-(tetrahydro-2H-pyran-4-yl)-1,4-dihydropyridin-3-carboxamide], the pIC50 against H1299 cell pAxl was > 8.48.
For the compound `COc1cc2nccc(Oc3ccc(NC(=O)c4cc(CC5CCOCC5)cn(-c5ccc(F)cc5)c4=O)nc3)c2cc1OC` [Compound 32, N-(5-((6,7-dimethoxyquinolin-4-yl)oxy)pyridin-2-yl)-1-(4-fluorophenyl)-2-oxo-5-((tetrahydro-2H-pyran-4-yl)methy 1)-1,2-dihydropyridin-3-carboxamide], the pIC50 against H1299 cell pAxl is > 8.96.
Turning to `COc1cc2nccc(Oc3cnc(NC(=O)c4nn(C5CCOCC5)cc(-c5ccc(F)cc5)c4=O)nc3)c2cc1OC` [Compound 33, N-(5-((6,7-dimethoxyquinolin-4-yl)oxy)pyrimidin-2-yl)-5-(4-fluorophenyl)-4-oxo-1-(tetrahydro-2H-pyran-4-yl)-1,4-dihydropyridazin-3-carboxamide], the pIC50 against H1299 cell pAxl is 8.48.
For the compound `COc1cc2nccc(Oc3ccc(NC(=O)c4nn(C5CCOCC5)cc(-c5ccc(F)cc5)c4=O)nc3)c2cc1OC` [Compound 34, N-(5-((6,7-dimethoxyquinolin-4-yl)oxy)pyridin-2-yl)-5-(4-fluorophenyl)-4-oxo-1-(tetrahydro-2H-pyran-4-yl)-1,4-dihydropyridazin-3-carboxamide], the pIC50 at H1299 cell pAxl is > 8.96. In addition, the bioavailability in data set [1] (IV 1 mg/kg, PO 5 mg/kg) was found to be 65.7%. Moreover, the AUC(0-t) in data set [1] (setting [2]) was determined as 8440 ng·h/mL; in data set [1] (setting [4]) it was 28000 ng·h/mL. Also, the clearance in data set [1] (IV 1 mg/kg) was 1.83 mL/min/kg. Besides, in data set [1] (IV 1 mg/kg), the Vd turned out to be 0.84 L/kg. Further, the half-life in data set [1] (setting [3]) is 5.18 h; in data set [1] (setting [5]) it was 4.56 h. Also, the Tmax in data set [1] (PO 5 mg/kg) is 6 h.

As a reminder, the bioavailability is dose-corrected exposure relative to a reference, in per cent. The term pIC50 denotes the negative decadic logarithm of the IC50, by convention in mol/L. The low end stands for a high IC50, the high end for a low IC50.
